# Structures can show the parent of a compound that is named as a salt.
# Target: BTK (Homo sapiens, UniProt Q06187)
# Assay: Inhibitory activity against BTK (ADP-Glo + BTK Kinase enzyme system kit)
# BTK, sequence (Q06187 whole entry): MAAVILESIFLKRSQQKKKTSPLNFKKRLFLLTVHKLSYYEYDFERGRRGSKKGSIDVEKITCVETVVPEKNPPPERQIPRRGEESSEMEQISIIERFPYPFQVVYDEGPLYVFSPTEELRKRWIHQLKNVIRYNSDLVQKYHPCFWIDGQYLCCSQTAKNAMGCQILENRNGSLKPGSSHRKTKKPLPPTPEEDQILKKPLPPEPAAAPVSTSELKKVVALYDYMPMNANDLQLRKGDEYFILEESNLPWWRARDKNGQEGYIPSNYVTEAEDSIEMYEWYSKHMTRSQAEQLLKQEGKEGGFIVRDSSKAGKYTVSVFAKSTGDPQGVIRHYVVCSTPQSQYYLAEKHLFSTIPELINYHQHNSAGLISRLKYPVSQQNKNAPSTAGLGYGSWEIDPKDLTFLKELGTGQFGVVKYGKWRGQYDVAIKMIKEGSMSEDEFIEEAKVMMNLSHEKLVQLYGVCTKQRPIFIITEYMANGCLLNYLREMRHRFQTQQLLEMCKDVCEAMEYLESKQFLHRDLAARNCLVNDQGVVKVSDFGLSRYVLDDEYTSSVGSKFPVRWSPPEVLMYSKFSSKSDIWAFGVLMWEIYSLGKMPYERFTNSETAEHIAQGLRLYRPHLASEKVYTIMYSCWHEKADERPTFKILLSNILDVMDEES
row,Structure (SMILES),IC50
1,"C#CC(=O)N1CC2CC1C(n1nc(-c3ccc(Nc4ccccc4)cc3)c3c(N)ncnc31)C2 (stereo not shown) [Ex. 31, 1-(6-(4-amino-3-(4-(phenylamino)phenyl)-1H-pyrazolo[3,4-d]pyrimidin-1-yl)-2-azabicyclo[2.2.1]heptan-2-yl)prop-2-yn-1-one]",12.5 nM
2,"C=CC(=O)N1CC2CC1C(n1nc(-c3ccc(Oc4ccncc4)cc3)c3c(N)ncnc31)C2 (stereo not shown) [Ex. 36, 1-(6-(4-amino-3-(4-(pyridin-4-yloxy)phenyl)-1H-pyrazolo[3,4-d]pyrimidin-1-yl)-2-azabicyclo[2.2.1]heptan-2-yl)prop-2-en-1-one]",> 1000 nM
3,"C=CC(=O)N1CC2CC1C(n1nc(-c3ccc(NC(=O)c4ccccc4)cc3)c3c(N)ncnc31)C2 (stereo not shown) [Ex. 37, N-(4-(1-(2-acryloyl-2-azabicyclo[2.2.1]heptan-6-yl)-4-amino-1H-pyrazolo[3,4-d]pyrimidin-3-yl)phenyl)benzamide]",5.1 nM
4,"C=CC(=O)N1CC2CC1C(n1nc(-c3ccc(NC(=O)c4ccccn4)cc3)c3c(N)ncnc31)C2 (stereo not shown) [Ex. 38, N-(4-(1-(2-acryloyl-2-azabicyclo[2.2.1]heptan-6-yl)-4-amino-1H-pyrazolo[3,4-d]pyrimidin-3-yl)phenyl)picolinamide]",8.2 nM
5,"C=CC(=O)N1CC2CC1C(n1nc(-c3ccc(NC(=O)Nc4ccccc4)cc3)c3c(N)ncnc31)C2 (stereo not shown) [Ex. 39, 1-(4-(1-(2-acryloyl-2-azabicyclo[2.2.1]heptan-6-yl)-4-amino-1H-pyrazolo[3,4-d]pyrimidin-3-yl)phenyl)-3-phenylurea]",15.2 nM
6,"C=CC(=O)N1CC2CC1C(n1nc(-c3ccc(Oc4cccc(C)c4)cc3)c3c(N)ncnc31)C2 (stereo not shown) [Ex. 40, 1-(6-(4-amino-3-(4-(m-tolyloxy)phenyl)-1H-pyrazolo[3,4-d]pyrimidin-1-yl)-2-azabicyclo[2.2.1]heptan-2-yl)prop-2-en-1-one]",5.5 nM
7,"Nc1ncnc2c1c(-c1ccc(Oc3ccccc3)cc1)nn2C1CC2CC1N(C(=O)/C=C/CBr)C2 (stereo not shown) [Ex. 44, (E)-1-(6-(4-amino-3-(4-phenoxyphenyl)-1H-pyrazolo[3,4-d]pyrimidin-1-yl)-2-azabicyclo[2.2.1]heptan-2-yl)-4-bromobut-2-en-1-one]",5.9 nM
8,"CN(C)C/C=C/C(=O)N1CC2CC1C(n1nc(-c3ccc(Oc4ccccc4)cc3)c3c(N)ncnc31)C2 (stereo not shown) [Ex. 45, (E)-1-(6-(4-amino-3-(4-phenoxyphenyl)-1H-pyrazolo[3,4-d]pyrimidin-1-yl)-2-azabicyclo[2.2.1]heptan-2-yl)-4-(dimethylamino)but-2-en-1-one]",11.4 nM
9,"C=CC(=O)N1CC2CC1C(n1nc(-c3ccc(C(=O)Nc4cccc(CC)c4)cc3)c3c(N)ncnc31)C2 (stereo not shown) [Ex. 46, 4-(1-(2-acryloyl-2-azabicyclo[2.2.1]heptan-6-yl)-4-amino-1H-pyrazolo[3,4-d]pyrimidin-3-yl)-N-(3-ethylphenyl)benzamide]",72 nM
10,"C=CC(=O)N1CC2CC1C(n1nc(-c3ccc(C(=O)Nc4cccc(C(C)C)c4)cc3)c3c(N)ncnc31)C2 (stereo not shown) [Ex. 47, 4-(1-(2-acryloyl-2-azabicyclo[2.2.1]heptan-6-yl)-4-amino-1H-pyrazolo[3,4-d]pyrimidin-3-yl)-N-(3-isopropylphenyl)benzamide]",10.9 nM
11,"C=CC(=O)N1CC2CC1C(n1nc(-c3ccc(NC(=O)c4cccc(N(C)C)c4)cc3)c3c(N)ncnc31)C2 (stereo not shown) [Ex. 50, N-(4-(1-(2-acryloyl-2-azabicyclo[2.2.1]heptan-6-yl)-4-amino-1H-pyrazolo[3,4-d]pyrimidin-3-yl)phenyl)-3-(dimethylamino)benzamide]",28.6 nM
12,"C=CC(=O)N1CC2CC1C(n1nc(-c3ccc(Oc4cccc(N)c4)cc3)c3c(N)ncnc31)C2 (stereo not shown) [Ex. 51, 1-(6-(4-amino-3-(4-(3-aminophenoxy)phenyl)-1H-pyrazolo[3,4-d]pyrimidin-1-yl)-2-azabicyclo[2.2.1]heptan-2-yl)prop-2-en-1-one hydrochloride]",107 nM
13,"C=CC(=O)N1CC2CC1C(n1nc(-c3ccc(C(=O)Nc4ccccc4)cc3F)c3c(N)ncnc31)C2 (stereo not shown) [Ex. 52, 4-(1-(2-acryloyl-2-azabicyclo[2.2.1]heptan-6-yl)-4-amino-1H-pyrazolo[3,4-d]pyrimidin-3-yl)-3-fluoro-N-phenylbenzamide]",5.1 nM
14,"C=CC(=O)N1CC2CC1C(n1nc(-c3ccc(C(=O)Nc4ccccc4N(C)C)cc3)c3c(N)ncnc31)C2 (stereo not shown) [Ex. 55, 4-(1-(2-acryloyl-2-azabicyclo[2.2.1]heptan-6-yl)-4-amino-1H-pyrazolo[3,4-d]pyrimidin-3-yl)-N-(2-(dimethylamino)phenyl)benzamide]",8.5 nM
15,"C=CC(=O)N1CC2CC1C(n1nc(-c3ccc(C(=O)Nc4cnn(C)c4)cc3)c3c(N)ncnc31)C2 (stereo not shown) [Ex. 56, 4-(1-(2-acryloyl-2-azabicyclo[2.2.1]heptan-6-yl)-4-amino-1H-pyrazolo[3,4-d]pyrimidin-3-yl)-N-(1-methyl-1H-pyrazol-4-yl)benzamide]",143 nM
16,"C=CC(=O)N1CC2CC1C(n1nc(-c3ccc(NC(=O)c4ccccc4N(C)C)cc3)c3c(N)ncnc31)C2 (stereo not shown) [Ex. 57, N-(4-(1-(2-acryloyl-2-azabicyclo[2.2.1]heptan-6-yl)-4-amino-1H-pyrazolo[3,4-d]pyrimidin-3-yl)phenyl)-2-(dimethylamino)benzamide]",8.8 nM
17,"Nc1ncnc2c1c(-c1ccc(Oc3ccccc3)cc1)nn2C1CC2CC1N(C(=O)/C=C/CN1CCOCC1)C2 (stereo not shown) [Ex. 58, (E)-1-(6-(4-amino-3-(4-phenoxyphenyl)-1H-pyrazolo[3,4-d]pyrimidin-1-yl)-2-azabicyclo[2.2.1]heptan-2-yl)-4-morpholinobut-2-en-1-one]",5.3 nM
18,"CN(C)C/C=C/C(=O)N1CC2CC1C(n1nc(-c3ccc(C(=O)Nc4ccccn4)cc3)c3c(N)ncnc31)C2 (stereo not shown) [Ex. 60, (E)-4-(4-amino-1-(2-(4-(dimethylamino)but-2-enoyl)-2-azabicyclo[2.2.1]heptan-6-yl)-1H-pyrazolo[3,4-d]pyrimidin-3-yl)-N-(pyridin-2-yl)benzamide]",36.4 nM
19,"CN1CCN(C/C=C/C(=O)N2CC3CC2C(n2nc(-c4ccc(C(=O)Nc5ccccn5)cc4)c4c(N)ncnc42)C3)CC1 (stereo not shown) [Ex. 61, (E)-4-(4-amino-1-(2-(4-(4-methylpiperazin-1-yl)but-2-enoyl)-2-azabicyclo[2.2.1]heptan-6-yl)-1H-pyrazolo[3,4-d]pyrimidin-3-yl)-N-(pyridin-2-yl)benzamide]",136 nM
20,"CN1CCN(C/C=C/C(=O)N2CC3CC2C(n2nc(-c4ccc(Oc5ccccc5)cc4)c4c(N)ncnc42)C3)CC1 (stereo not shown) [Ex. 62, (E)-1-(6-(4-amino-3-(4-phenoxyphenyl)-1H-pyrazolo[3,4-d]pyrimidin-1-yl)-2-azabicyclo[2.2.1]heptan-2-yl)-4-(4-methylpiperazin-1-yl)but-2-en-1-one]",5.8 nM
21,"Nc1ncnc2c1c(-c1ccc(Oc3ccccc3)cc1)nn2C1CC2CC1CN2C(=O)/C=C/CBr (stereo not shown) [Ex. 65, (E)-1-(5-(4-amino-3-(4-phenoxyphenyl)-1H-pyrazolo[3,4-d]pyrimidin-1-yl)-2-azabicyclo[2.2.1]heptan-2-yl)-4-bromobut-2-en-1-one]",6.7 nM
22,"Nc1ncnc2c1c(-c1ccc(Oc3ccccc3)cc1)nn2C1CC2CC1CN2C(=O)/C=C/CN1CCCCC1 (stereo not shown) [Ex. 66, (E)-1-(5-(4-amino-3-(4-phenoxyphenyl)-1H-pyrazolo[3,4-d]pyrimidin-1-yl)-2-azabicyclo[2.2.1]heptan-2-yl)-4-(piperidin-1-yl)but-2-en-1-one]",49.6 nM

# — patent US10399988B2, “4-aminopyrazolo[3,4-d]pyrimidinylazabicyclo derivatives and pharmaceutical composition comprising the same” (Daewoong Pharmaceutical Co., Ltd., priority 2016, dated 2019)
